According to the NIST ThermoML archive (doi:10.1016/j.jct.2015.08.014):
Numbers after ± are expanded uncertainties.

Experiment: xn = mol fraction of the nth substance listed
Conditions: 323.15 K, 100 kPa, Liquid; for electrical conductivity: Alternating current cell with electrodes; for mass density: Vibrating tube method

## CCCC[N+]1(C)CCCC1.N#CN=C=[N-] [1-butyl-1-methylpyrrolidinium dicyanamide] + O=C1CCCO1
Frequency=0.005454 MHz, x1 = 0.9013
  electrical conductivity: 2.633 ± 0.026 S/m
Frequency=0.005454 MHz, x1 = 1
  electrical conductivity: 2.529 ± 0.025 S/m
Frequency=0.006 MHz, x1 = 0.0463
  electrical conductivity: 2.01 ± 0.037 S/m
Frequency=0.006 MHz, x1 = 0.0987
  electrical conductivity: 3.08 ± 0.039 S/m
Frequency=0.006 MHz, x1 = 0.1449
  electrical conductivity: 3.57 ± 0.038 S/m
Frequency=0.006 MHz, x1 = 0.1859
  electrical conductivity: 3.86 ± 0.039 S/m
Frequency=0.006 MHz, x1 = 0.2493
  electrical conductivity: 3.89 ± 0.039 S/m
Frequency=0.006 MHz, x1 = 0.3029
  electrical conductivity: 3.88 ± 0.039 S/m
Frequency=0.006 MHz, x1 = 0.3845
  electrical conductivity: 3.74 ± 0.038 S/m
Frequency=0.006 MHz, x1 = 0.4985
  electrical conductivity: 3.46 ± 0.035 S/m
Frequency=0.006 MHz, x1 = 0.6954
  electrical conductivity: 2.99 ± 0.03 S/m
Frequency=0.006 MHz, x1 = 0.9013
  electrical conductivity: 2.633 ± 0.026 S/m
Frequency=0.006 MHz, x1 = 1
  electrical conductivity: 2.529 ± 0.025 S/m
Frequency=0.00652174 MHz, x1 = 0.0463
  electrical conductivity: 2.01 ± 0.037 S/m
Frequency=0.00652174 MHz, x1 = 0.0987
  electrical conductivity: 3.08 ± 0.039 S/m
Frequency=0.00652174 MHz, x1 = 0.1449
  electrical conductivity: 3.57 ± 0.038 S/m
Frequency=0.00652174 MHz, x1 = 0.1859
  electrical conductivity: 3.86 ± 0.039 S/m
Frequency=0.00652174 MHz, x1 = 0.2493
  electrical conductivity: 3.9 ± 0.039 S/m
Frequency=0.00652174 MHz, x1 = 0.3029
  electrical conductivity: 3.88 ± 0.039 S/m
Frequency=0.00652174 MHz, x1 = 0.3845
  electrical conductivity: 3.74 ± 0.038 S/m
Frequency=0.00652174 MHz, x1 = 0.4985
  electrical conductivity: 3.46 ± 0.035 S/m
Frequency=0.00652174 MHz, x1 = 0.6954
  electrical conductivity: 2.99 ± 0.03 S/m
Frequency=0.00652174 MHz, x1 = 0.9013
  electrical conductivity: 2.63 ± 0.027 S/m
Frequency=0.00652174 MHz, x1 = 1
  electrical conductivity: 2.529 ± 0.025 S/m
Frequency=0.00694444 MHz, x1 = 0.0463
  electrical conductivity: 2.01 ± 0.037 S/m
Frequency=0.00694444 MHz, x1 = 0.0987
  electrical conductivity: 3.08 ± 0.039 S/m
Frequency=0.00694444 MHz, x1 = 0.1449
  electrical conductivity: 3.57 ± 0.038 S/m
Frequency=0.00694444 MHz, x1 = 0.1859
  electrical conductivity: 3.86 ± 0.039 S/m
Frequency=0.00694444 MHz, x1 = 0.2493
  electrical conductivity: 3.9 ± 0.039 S/m
Frequency=0.00694444 MHz, x1 = 0.3029
  electrical conductivity: 3.88 ± 0.039 S/m
Frequency=0.00694444 MHz, x1 = 0.3845
  electrical conductivity: 3.74 ± 0.038 S/m
Frequency=0.00694444 MHz, x1 = 0.4985
  electrical conductivity: 3.46 ± 0.035 S/m
Frequency=0.00694444 MHz, x1 = 0.6954
  electrical conductivity: 2.99 ± 0.03 S/m
Frequency=0.00694444 MHz, x1 = 0.9013
  electrical conductivity: 2.63 ± 0.027 S/m
Frequency=0.00694444 MHz, x1 = 1
  electrical conductivity: 2.529 ± 0.025 S/m
Frequency=0.0075 MHz, x1 = 0.0463
  electrical conductivity: 2.01 ± 0.037 S/m
Frequency=0.0075 MHz, x1 = 0.0987
  electrical conductivity: 3.08 ± 0.039 S/m
Frequency=0.0075 MHz, x1 = 0.1449
  electrical conductivity: 3.57 ± 0.038 S/m
Frequency=0.0075 MHz, x1 = 0.1859
  electrical conductivity: 3.86 ± 0.039 S/m
Frequency=0.0075 MHz, x1 = 0.2493
  electrical conductivity: 3.9 ± 0.039 S/m
Frequency=0.0075 MHz, x1 = 0.3029
  electrical conductivity: 3.88 ± 0.039 S/m
Frequency=0.0075 MHz, x1 = 0.3845
  electrical conductivity: 3.74 ± 0.038 S/m
Frequency=0.0075 MHz, x1 = 0.4985
  electrical conductivity: 3.46 ± 0.035 S/m
Frequency=0.0075 MHz, x1 = 0.6954
  electrical conductivity: 2.99 ± 0.03 S/m
Frequency=0.0075 MHz, x1 = 0.9013
  electrical conductivity: 2.63 ± 0.027 S/m
Frequency=0.0075 MHz, x1 = 1
  electrical conductivity: 2.529 ± 0.025 S/m
Frequency=0.008 MHz, x1 = 0.0463
  electrical conductivity: 2.01 ± 0.037 S/m
Frequency=0.008 MHz, x1 = 0.0987
  electrical conductivity: 3.08 ± 0.039 S/m
Frequency=0.008 MHz, x1 = 0.1449
  electrical conductivity: 3.57 ± 0.038 S/m
Frequency=0.008 MHz, x1 = 0.1859
  electrical conductivity: 3.86 ± 0.039 S/m
Frequency=0.008 MHz, x1 = 0.2493
  electrical conductivity: 3.9 ± 0.039 S/m
Frequency=0.008 MHz, x1 = 0.3029
  electrical conductivity: 3.88 ± 0.039 S/m
Frequency=0.008 MHz, x1 = 0.3845
  electrical conductivity: 3.74 ± 0.038 S/m
Frequency=0.008 MHz, x1 = 0.4985
  electrical conductivity: 3.46 ± 0.035 S/m
Frequency=0.008 MHz, x1 = 0.6954
  electrical conductivity: 2.99 ± 0.03 S/m
Frequency=0.008 MHz, x1 = 0.9013
  electrical conductivity: 2.63 ± 0.027 S/m
Frequency=0.008 MHz, x1 = 1
  electrical conductivity: 2.529 ± 0.025 S/m
Frequency=0.00857143 MHz, x1 = 0.0463
  electrical conductivity: 2.01 ± 0.037 S/m
Frequency=0.00857143 MHz, x1 = 0.0987
  electrical conductivity: 3.08 ± 0.039 S/m
Frequency=0.00857143 MHz, x1 = 0.1449
  electrical conductivity: 3.57 ± 0.038 S/m
Frequency=0.00857143 MHz, x1 = 0.1859
  electrical conductivity: 3.86 ± 0.039 S/m
Frequency=0.00857143 MHz, x1 = 0.2493
  electrical conductivity: 3.9 ± 0.039 S/m
Frequency=0.00857143 MHz, x1 = 0.3029
  electrical conductivity: 3.88 ± 0.039 S/m
Frequency=0.00857143 MHz, x1 = 0.3845
  electrical conductivity: 3.74 ± 0.038 S/m
Frequency=0.00857143 MHz, x1 = 0.4985
  electrical conductivity: 3.46 ± 0.035 S/m
Frequency=0.00857143 MHz, x1 = 0.6954
  electrical conductivity: 2.99 ± 0.03 S/m
Frequency=0.00857143 MHz, x1 = 0.9013
  electrical conductivity: 2.63 ± 0.027 S/m
Frequency=0.00857143 MHz, x1 = 1
  electrical conductivity: 2.529 ± 0.025 S/m
Frequency=0.00892857 MHz, x1 = 0.0463
  electrical conductivity: 2.01 ± 0.037 S/m
Frequency=0.00892857 MHz, x1 = 0.0987
  electrical conductivity: 3.08 ± 0.039 S/m
Frequency=0.00892857 MHz, x1 = 0.1449
  electrical conductivity: 3.57 ± 0.038 S/m
Frequency=0.00892857 MHz, x1 = 0.1859
  electrical conductivity: 3.86 ± 0.039 S/m
Frequency=0.00892857 MHz, x1 = 0.2493
  electrical conductivity: 3.9 ± 0.039 S/m
Frequency=0.00892857 MHz, x1 = 0.3029
  electrical conductivity: 3.88 ± 0.039 S/m
Frequency=0.00892857 MHz, x1 = 0.3845
  electrical conductivity: 3.74 ± 0.038 S/m
Frequency=0.00892857 MHz, x1 = 0.4985
  electrical conductivity: 3.46 ± 0.035 S/m
Frequency=0.00892857 MHz, x1 = 0.6954
  electrical conductivity: 2.99 ± 0.03 S/m
Frequency=0.00892857 MHz, x1 = 0.9013
  electrical conductivity: 2.63 ± 0.027 S/m
Frequency=0.00892857 MHz, x1 = 1
  electrical conductivity: 2.529 ± 0.025 S/m
Frequency=0.00961538 MHz, x1 = 0.0463
  electrical conductivity: 2.01 ± 0.037 S/m
Frequency=0.00961538 MHz, x1 = 0.0987
  electrical conductivity: 3.08 ± 0.039 S/m
Frequency=0.00961538 MHz, x1 = 0.1449
  electrical conductivity: 3.57 ± 0.038 S/m
Frequency=0.00961538 MHz, x1 = 0.1859
  electrical conductivity: 3.86 ± 0.039 S/m
Frequency=0.00961538 MHz, x1 = 0.2493
  electrical conductivity: 3.9 ± 0.039 S/m
Frequency=0.00961538 MHz, x1 = 0.3029
  electrical conductivity: 3.88 ± 0.039 S/m
Frequency=0.00961538 MHz, x1 = 0.3845
  electrical conductivity: 3.74 ± 0.038 S/m
Frequency=0.00961538 MHz, x1 = 0.4985
  electrical conductivity: 3.46 ± 0.035 S/m
Frequency=0.00961538 MHz, x1 = 0.6954
  electrical conductivity: 3 ± 0.03 S/m
Frequency=0.00961538 MHz, x1 = 0.9013
  electrical conductivity: 2.63 ± 0.027 S/m
Frequency=0.00961538 MHz, x1 = 1
  electrical conductivity: 2.529 ± 0.025 S/m
Frequency=0.01 MHz, x1 = 0.0463
  electrical conductivity: 2.01 ± 0.037 S/m
Frequency=0.01 MHz, x1 = 0.0987
  electrical conductivity: 3.08 ± 0.039 S/m
Frequency=0.01 MHz, x1 = 0.1449
  electrical conductivity: 3.57 ± 0.038 S/m
Frequency=0.01 MHz, x1 = 0.1859
  electrical conductivity: 3.86 ± 0.039 S/m
Frequency=0.01 MHz, x1 = 0.2493
  electrical conductivity: 3.9 ± 0.039 S/m
Frequency=0.01 MHz, x1 = 0.3029
  electrical conductivity: 3.88 ± 0.039 S/m
Frequency=0.01 MHz, x1 = 0.3845
  electrical conductivity: 3.74 ± 0.038 S/m
Frequency=0.01 MHz, x1 = 0.4985
  electrical conductivity: 3.46 ± 0.035 S/m
Frequency=0.01 MHz, x1 = 0.6954
  electrical conductivity: 3 ± 0.03 S/m
Frequency=0.01 MHz, x1 = 0.9013
  electrical conductivity: 2.63 ± 0.027 S/m
Frequency=0.01 MHz, x1 = 1
  electrical conductivity: 2.529 ± 0.025 S/m
x1 = 0.0987
  mass density: 1082.02 ± 8.7 kg/m3
x1 = 0.1859
  mass density: 1067.9 ± 8.6 kg/m3
x1 = 0.3029
  mass density: 1051.93 ± 8.4 kg/m3
x1 = 0.4985
  mass density: 1031.43 ± 8.3 kg/m3
x1 = 0.6954
  mass density: 1016.21 ± 8.2 kg/m3
x1 = 0.9013
  mass density: 1004.23 ± 8.1 kg/m3
x1 = 1
  mass density: 999.525 ± 8 kg/m3
